Experimental data from patent US6670364B2, “Antagonists of MCP-1 function and methods of use thereof” (Telik, Inc., priority 2001, dated 2003).
Counter-ions that a name gives are not always drawn.

What follows are compounds tested on female Lewis rats (assay: Collagen-induced arthritis model in rat, p.o. (Example 24)). Settings: 2 mg/kg p.o. twice a day from day 0.
Type: in vivo
Method: Collagen-induced arthritis was induced in female Lewis rats as follows. Rats were injected subcutaneously with the emulsion of bovine collagen type 11 (3.3 mg/kg at day 0 and 1.67 mg/kg at day 7) and complete Freund's adjuvant (CFA) at the base of the tail at day 0 and immunized additionally at day 7. The test compounds were administered p.o. at day 0 and then twice a day for 21 days or 3 times a week until day 21 was also administered p.o. from day 13 to day 21 in another group. Paw swelling was measured by the increased volume of the legs using a plethysmometer.

Compound | Percent Swelling day 14 [%] | Percent Swelling day 21 [%]
Cc1nn(C)c2nc(N(C)CCN(C)C)c(C(=O)NC(=O)Nc3cccc(OC(C)C)c3)cc12 [Compound 140] | 14.2 ± 3.3 | 49.2 ± 14.1

Same assay, conditions: 10 mg/kg p.o. from day 13 to day 21

Compound | Percent Swelling day 14 [%] | Percent Swelling day 21 [%]
Cc1nn(C)c2nc(N(C)CCN(C)C)c(C(=O)NC(=O)Nc3cccc(OC(C)C)c3)cc12 [Compound 140] | 10.1 ± 1.6 | 73.5 ± 6.3

Same assay, conditions: 10 mg/kg p.o. twice a day from day 0

Compound | Percent Swelling day 14 [%] | Percent Swelling day 21 [%]
Cc1nn(C)c2nc(N(C)CCN(C)C)c(C(=O)NC(=O)Nc3cccc(OC(C)C)c3)cc12 [Compound 140] | 7.5 ± 1.0 | 28.0 ± 6.4

These compounds were tested on ICR male mice (assay: Thioglycollate-induced inflammation model (Example 18)). Settings: 2 mg/kg s.c., repeated immediately after broth injection and 3 h later; peritoneal cavity at 72 h; mouse.
Type: in vivo
Method: 3% Brewer's thioglycollate broth (Difco, Detroit, Mich.) was injected into the peritoneal cavity of ICR male mice, followed by subcutaneous administration of the test compound. The same dose of test compound was again administered immediately after the broth injection and 3 h later. After 72 h, the number of total elicited cells and MOMA2-positive cells in the peritoneal cavity was analyzed using an EPICS XL Beckman Coulter.

Compound | MOMA2-positive Cells (× 10^6) | Total Cells (× 10^6)
Cc1nn(C)c2ncc(C(=O)NC(=O)Nc3ccc(C(=O)N4CCN(C)CC4)c(Cl)c3)c(N3CCN(C)CC3)c12 [Compound 97] | 4.1 ± 0.3 × 10^6 | 6.4 ± 0.6 × 10^6

Same assay, conditions: 10 mg/kg s.c., repeated immediately after broth injection and 3 h later; peritoneal cavity at 72 h; mouse

Compound | MOMA2-positive Cells (× 10^6) | Total Cells (× 10^6)
Cc1nn(C)c2nc(N(C)CCN(C)C)c(C(=O)NC(=O)Nc3cccc(OC(C)C)c3)cc12 [Compound 140] | 5.2 ± 0.6 × 10^6 | 7.3 ± 1.1 × 10^6
Cc1nn(C)c2nc(N(C)CCN(C)C)c(C(=O)NC(=O)Nc3ccc(F)c(C(F)(F)F)c3)cc12 [Compound 116, (6-{[2-(Dimethylamino)ethyl]methylamino}-1,3-dimethylpyrazolo[5,4-b]-pyridin-5-yl)-N-({[4-fluoro-3-(trifluoromethyl)phenyl]amino}carbonyl)-carboxamide hydrochloride] | 3.0 ± 0.8 × 10^6 | 4.2 ± 1.1 × 10^6

The compounds below were run against hMCP-1 (Homo sapiens, UniProt P13500) (assay: Inhibition of MCP-1-induced chemotaxis (48-well chamber, Example 21)). Settings: THP-1 cells, 2.5 nM hMCP-1, 48-well chamber, 2 hr.
Type: cell-based
Parameters: purchased PeproTech
Method: A 48-well microchemotaxis chamber with a 5 μm-pore size, PVP-coated polycarbonate filter membrane (Neuro Probe Inc., Cabin John, Md.) was used for testing. Compounds were prepared as 10 mM stock solution in DMSO. THP-1 cells were washed with RPMI 1640 medium supplemented with 0.5% BSA and 25 mM HEPES, pH 7.4, and suspended at a density of 4×10^6 cells/mL in the same medium. A 150 μL aliquot of this suspension was treated with an equal volume of test compound solution and the mixture incubated at 37° C. for 15 min. The lower chamber was loaded with 26 μL of a 2.5 nM solution of hMCP-1 (PeproTech) in medium. The filter membrane was placed over the lower chamber, followed by a silicon rubber gasket and the upper chamber. A 50 μL aliquot of the THP-1 cell suspension containing the test compound was added to the upper chamber and the assembly incubated in a 5% CO2 atmosphere at 37+ C. for 2 hr. The chamber was then disassembled and the cells remaining on the upper surface of the filter were scrapped off with a rubber scrapper. The filter was fixed with methanol, stained with Diff-Quik solution, and mounted on a slide glass. The cells that had migrated across the filter onto the lower surface were then counted by microscopic observation.

Sequence of hMCP-1 (P13500 24-99): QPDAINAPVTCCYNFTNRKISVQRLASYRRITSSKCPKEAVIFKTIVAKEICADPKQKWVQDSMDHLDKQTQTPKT

Compound | IC50 [µM]
Cc1nn(C)c2ncc(C(=O)NC(=O)Nc3ccc(F)c(C(F)(F)F)c3)c(NCCC34CCCN3CCC4)c12 [Compound 60, {1,3-Dimethyl-4-[(2-perhydropyrrolizin-7a-ylethyl)amino]pyrazolo[5,4-b]pyridin-5-yl}-N-({[4-fluoro-3-(trifluoromethyl)phenyl]amino}carbonyl)carboxamide hydrochloride] | 1.2
Cc1nn(C)c2ncc(C(=O)NC(=O)Nc3ccc(F)c(C(F)(F)F)c3)c(N3CCOCC3)c12 [Compound 65, (1,3-Dimethyl-4-morpholin-4-ylpyrazolo[5,4-b]pyridin-5-yl)-N-({[4-fluoro 3-(trifluoromethyl)phenyl]amino}carbonyl)carboxamide] | 10
Cc1nn(C)c2ncc(C(=O)NC(=O)Nc3ccc(F)c(C(F)(F)F)c3)c(NCc3ccccc3)c12 [Compound 61] | 20
Cc1nn(C)c2ncc(C(=O)NC(=O)Nc3ccc(F)c(C(F)(F)F)c3)c(N3CCN(c4ccccc4)CC3)c12 [Compound 103, [1,3-Dimethyl-4-(4-phenylpiperazinyl)pyrazolo[5,4-b]pyridin-5-yl]-N-({[4-fluoro-3-(trifluoromethyl)phenyl]amino}carbonyl)carboxamide] | 2
Cc1nn(C)c2ncc(C(=O)NC(=O)Nc3ccc(F)c(C(F)(F)F)c3)c(N3CCNCC3)c12 [Compound 67] | 1.8
Cc1nn(C)c2ncc(C(=O)NC(=O)Nc3ccc(F)c(C(F)(F)F)c3)c(O)c12 [Compound 43, N-({[4-fluoro-3-(trifluoromethyl)phenyl]amino}carbonyl)(4-hydroxy-1,3-dimethylpyrazolo[5,4-b]pyridin-5-yl)carboxamide] | 7.7
Cc1nn(C)c2ncc(C(=O)NC(=O)Nc3ccc(F)c(C(F)(F)F)c3)c(-[n+]3ccc(N)cc3)c12 [Compound 106, 4-Amino-1-{5-[N-({[4-fluoro-3-(trifluoromethyl)phenyl]amino}carbonyl)carbamoyl]-1,3-dimethylpyrazolo[5,4-b]pyridin-4-yl}pyridinium chloride] | 0.4
[4-(4-Ethylpiperazinyl)-1,3-dimethylpyrazolo[5,4-b]pyridin-5-yl]-N-({[4-fluoro-3-(trifluoromethyl)phenyl]amino}carbonyl)carboxamide hydrochloride [Compound 100] | 0.38
Cc1nn(C)c2ncc(C(=O)NC(=O)Nc3ccc(F)c(C(F)(F)F)c3)c(N3CCCCC3)c12 [Compound 64, (1,3-Dimethyl-4-piperidylpyrazolo[5,4-b]pyridin-5-yl)-N-({[4-fluoro-3-(trifluoromethyl)-phenyl]amino}carbonyl)carboxamide] | 2
Cc1nn(C)c2ncc(C(=O)NC(=O)Nc3ccc(F)c(C(F)(F)F)c3)c(NCCN(C)C)c12 [Compound 46, (4-{[2-(Dimethylamino)ethyl]amino}-1,3-dimethylpyrazolo[5,4-b]pyridin-5-yl)-N-({[4-fluoro-3-(trifluoromethyl)phenyl]amino}carbonyl)carboxamide hydrochloride] | 2
Cc1nn(C)c2ncc(C(=O)NC(=O)Nc3ccc(C(=O)N4CCOCC4)c(Cl)c3)c(N3CCN(C)CC3)c12 [Compound 94] | 1.2
Cc1nn(C)c2ncc(C(=O)NC(=O)Nc3ccc(F)c(C(F)(F)F)c3)c(N(CCO)CCO)c12 [Compound 51, {4-[Bis(2-hydroxyethyl)amino]-1,3-dimethylpyrazolo[5,4-b]pyridin-5-yl}-N-({[4-fluoro-3-(trifluoromethyl)phenyl]amino}carbonyl)carboxamide] | 1.6
Cc1nn(C)c2ncc(C(=O)NC(=O)Nc3ccc(F)c(C(F)(F)F)c3)c(N(C)C)c12 [Compound 44, [4-(Dimethylamino)-1,3-dimethylpyrazolo[5,4-b]pyridin-5-yl]-N-({[4-fluoro-3-(trifluoromethyl)phenyl]amino}carbonyl)carboxamide] | 8.2
Cc1nn(C)c2ncc(C(=O)NC(=O)Nc3ccc(C(=O)N4CCN(C)CC4)c(Cl)c3)c(N3CCN(C)CC3)c12 [Compound 97] | 1.1
Cc1nn(C)c2ncc(C(=O)NC(=O)Nc3cc(C(F)(F)F)cc(C(F)(F)F)c3)c(N3CCN(C)CC3)c12 [Compound 91] | 3

The remaining lines, values ahead:

IC50 [µM] | Compound
4 | Cc1nn(C)c2ncc(C(=O)NC(=O)Nc3cccc(Br)c3)c(N3CCN(C)CC3)c12 [Compound 69]
1.9 | Cc1nn(C)c2ncc(C(=O)NC(=O)Nc3ccc(Cl)c(C(=O)N4CCOCC4)c3)c(N3CCN(C)CC3)c12 [Compound 95]
4 | Cc1nn(C)c2ncc(C(=O)NC(=O)Nc3ccc(Cl)cc3)c(N3CCN(C)CC3)c12 [Compound 70]
0.7 | Cc1nn(C)c2ncc(C(=O)NC(=O)Nc3cccc(OC(C)C)c3)c(N3CCN(C)CC3)c12 [Compound 75]
2.1 | Cc1nn(C)c2ncc(C(=O)NC(=O)Nc3ccc(Cl)c(C(=O)OC(C)C)c3)c(N3CCN(C)CC3)c12 [Compound 92]
4 | Cc1nn(C)c2ncc(C(=O)NC(=O)Nc3ccc(Cl)c(Cl)c3)c(N3CCN(C)CC3)c12 [Compound 71]
2 | Cc1nn(C)c2ncc(C(=O)NC(=O)Nc3ccc(F)c(C(F)(F)F)c3)c(N3CCCN(C)CC3)c12 [Compound 108, [1,3-Dimethyl-4-(4-methyl(1,4-diazaperhydroepinyl))pyrazolo[5,4-b]pyridin-5-yl]-N-({[4-fluoro-3-(trifluoromethyl)phenyl]amino}carbonyl)carboxamide hydrochloride]
4 | Cc1nn(C)c2ncc(C(=O)NC(=O)Nc3ccc(C(=O)O)c(OC(C)C)c3)c(N3CCN(C)CC3)c12 [Compound 76]
4 | Cc1ccc(NC(=O)NC(=O)c2cnc3c(c(C)nn3C)c2N2CCN(C)CC2)cc1C(F)(F)F [Compound 83]
0.9 | Cc1nn(C)c2ncc(C(=O)NC(=O)Nc3cccc(-c4nccs4)c3)c(N3CCN(C)CC3)c12 [Compound 78]
4 | Cc1nn(C)c2ncc(C(=O)NC(=O)Nc3cccc(C(C)C)c3)c(N3CCN(C)CC3)c12 [Compound 74]
0.7 | Cc1nn(C)c2ncc(C(=O)NC(=O)Nc3cccc(OC(F)(F)F)c3)c(N3CCN(C)CC3)c12 [Compound 77]
1.7 | Cc1nn(C)c2ncc(C(=O)NC(=O)Nc3cccc(C(F)(F)F)c3)c(N3CCN(C)CC3)c12 [Compound 73]
4 | Cc1nn(C)c2ncc(C(=O)NC(=O)Nc3cc(O)cc(C(F)(F)F)c3)c(N3CCN(C)CC3)c12 [Compound 89]
4 | Cc1nn(C)c2ncc(C(=O)NC(=O)Nc3cccc(-c4ccccc4)c3)c(N3CCN(C)CC3)c12 [Compound 80]
3.6 | Cc1nn(C)c2ncc(C(=O)NC(=O)Nc3cccc(C(F)(F)F)c3)c(N3CCN(C)CC3)c12 [Compound 72]
4 | Cc1nn(C)c2ncc(C(=O)NC(=O)Nc3cccc(Cl)c3)c(N3CCN(C)CC3)c12 [Compound 68]
4 | Cc1nn(C)c2ncc(C(=O)NC(=O)Nc3ccc(O)c(C(F)(F)F)c3)c(N3CCN(C)CC3)c12 [Compound 87]
